Source: patent US20220242879A1, “FUSED HETEROCYCLE DERIVATIVES” (Janssen Sciences Ireland Unlimited Company, priority 2019, published 2022)
Read-outs that look alike come from different tables or passages of the source.

Key:
[1] = Cytotoxicity, ATPlite Luminescence Assay; type: cell-based, human; conditions: human, mean value, cells incubated for 3 days, viability by ATPlite, read-out: TOX-HepC2.117 CC50
Procedure: Cytotoxicity of the compounds was tested using HepG2 or HepG2.117 cells, incubated for 3 days in the presence of compounds. The viability of the cells was assessed using the PERKIN ELMER ATPlite Luminescence Assay System.”

HBV = assay: Anti-HBV activity, HepG2.117 cell line, intracellular HBV DNA by real-time PCR; type: cell-based, Hepatitis B virus; conditions: Hepatitis B virus, read-out: HBV-AVE-HepG2.117 EC50
Procedure: The anti HBV activity was measured using the HepG2.117 cell line, a stable, inducibly HBV producing cell line, which replicates HBV in the absence of doxicycline (Tet-off system). The HepG2 cell line is available from ATCC® under number HB-8065. Transfection of the HepG2 cell line can be as described in Sun and Nassal 2006 Journal of Hepatology 45 (2006) 636-645 “Stable HepG2- and Huh7-based human hepatoma cell lines for efficient regulated expression of infectious hepatitis B virus”.
For the antiviral assay, HBV replication was induced, followed by a treatment with serially diluted compound in 96-well plates. After 3 days of treatment, the antiviral activity was determined by, quantification of intracellular HBV DNA using real-time PCR and an HBV specific primer set and probe.

[2] = 72 h, mean value, HepG2.117 cells, 3 days of treatment, intracellular HBV DNA

SMILES	CC50 at 3 days ([1]; HepG2.117 cells) [µM]	EC50 (HBV; [2]) [µM]	CC50 at 3 days [1] [µM]	EC50 (HBV; HepG2.117, 72 h) [µM]
Nc1nc2c(s1)CCCn1nc3c(c1-2)CN(C(=O)c1ccc(Cl)c(Cl)c1)CC3 [Compound 51, (2-amino-4,5,6,9,10,12-hexahydro-11H-pyrido[4′,3′:3,4]pyrazolo[1,5-a]thiazolo[4,5-c]azepin-11-yl)(3,4-dichlorophenyl)methanone]	> 50	> 10		
O=C(c1ccc(Cl)c(Cl)c1)N1CCc2nn3c(c2C1)-c1n[nH]cc1CC3 [Compound 6, (3,4-Dichlorophenyl)(2,4,5,8,9,11-hexahydro-10H-pyrazolo[3,4-c]pyrazolo[1,5-a:4,3-c′]-dipyridin-10-yl)methanone]	> 50	0.208		
CNC(=O)[C@@H]1Cc2conc2-c2c3c(nn2C1)CCN(C(=O)c1ccc(Cl)c(Cl)c1)C3 (single isomer, unassigned) [Compound 30, (5′R)-11-(3,4-Dichlorobenzoyl)-N-methyl-5,6,9,10,11,12-hexahydro-4H-[1,2]oxazolo[3,4-c]-pyrido[4′,3′:3,4]pyrazolo[1,5-a]azepine-5-carboxamide]	> 50	0.181		
O=C(Nc1ccccc1)C1Cc2conc2-c2c3c(nn2C1)CCN(C(=O)c1ccc(Cl)c(Cl)c1)C3 (stereo not drawn) [Compound 37, 11-(3,4-Dichlorobenzoyl)-N-phenyl-5,6,9,10,11,12-hexahydro-4H-[1,2]oxazolo[3,4-c]-pyrido[4′,3′:3,4]pyrazolo[1,5-a]azepine-5-carboxamide]			> 50	0.343
C=C1Cc2conc2-c2c3c(nn2C1)CCN(C(=O)c1ccc(Cl)c(Cl)c1)C3 [Compound 17, (3,4-Dichlorophenyl)(5-methylidene-5,6,9,10-tetrahydro-4H-[1.2]oxazolo[3,4-c]pyrido-[4′,3′:3,4]pyrazolo[1,5-a]azepin-11(12H)-yl)methanone]	24.7	0.248		
CN(C)C(=O)C1Cc2conc2-c2c3c(nn2C1)CCN(C(=O)c1ccc(Cl)c(Cl)c1)C3 (stereo not drawn) [Compound 36, 11-(3,4-Dichlorobenzoyl)-N,N-dimethyl-5,6,9,10,11,12-hexahydro-4H-[1,2]oxazolo[3,4-c]pyrido[4′,3′:3,4]pyrazolo[1,5-a]azepine-5-carboxamide]	> 50	0.686		
O=C(c1ccc(Cl)c(Cl)c1)N1CCc2nn3c(c2C1)-c1nocc1CC(CO)C3 (stereo not drawn) [Compound 27]	> 50	0.393		
Cn1ncc2c1-c1c3c(nn1CC2)CCN(C(=O)c1ccc(Cl)c(Cl)c1)C3 [Compound 9, (3,4-Dichlorophenyl)(1-methyl-1,4,5,8,9,11-hexahydro-10H-pyrazolo[3,4-c]pyrazolo-[1,5-a:4,3-c′]dipyridin-10-yl)methanone]	> 50	> 50		
CNC(=O)[C@H]1Cc2conc2-c2c3c(nn2C1)C[C@@H](C)N(C(=O)c1ccc(Cl)c(Cl)c1)C3 (single isomer, unassigned) [Compound 48]	> 50	0.019		
O=C(c1cnc(Cl)c(Cl)c1)N1CCc2nn3c(c2C1)-c1nocc1CC(O)C3 (stereo not drawn) [Compound 53]	> 50	> 10		
O=C(c1ccc(Cl)c(Cl)c1)N1CCc2nn3c(c2C1)-c1noc(-c2ccccc2)c1CC3 [Compound 4, (3,4-Dichlorophenyl)(3-phenyl-4,5,8,9-tetrahydro[1,2]oxazolo[3,4-c]pyrazolo-[1,5-a:4,3-c′]dipyridin-10(11H)-yl)methanone]	> 10	> 10		
CNC(=O)[C@H]1Cc2conc2-c2c3c(nn2C1)CCN(C(=O)c1ccc(Cl)c(Cl)c1)[C@@H]3C (single isomer, unassigned) [Compound 50]	> 50	8.43		
O=C(NCCO)C1Cc2conc2-c2c3c(nn2C1)CCN(C(=O)c1ccc(Cl)c(Cl)c1)C3 (stereo not drawn) [Compound 34, 11-(3,4-Dichlorobenzoyl)-N-(2-hydroxyethyl)-5,6,9,10,11,12-hexahydro-4H-[1,2]oxazolo-[3,4-c]pyrido[4′,3′:3,4]pyrazolo[1,5-a]azepine-5-carboxamide]	> 50	0.358		
Nc1onc2c1CC(O)(CO)Cn1nc3c(c1-2)CN(C(=O)c1ccc(Cl)c(Cl)c1)CC3 (stereo not drawn) [Compound 24, [3-Amino-5-hydroxy-5-(hydroxymethyl)-5,6,9,10-tetrahydro-4H-[1,2]oxazolo[3,4-c]pyrido-[4′,3′:3,4]pyrazolo[1,5-a]azepin-11(12H)-yl](3,4-dichlorophenyl)methanone]	> 50	1.59		
O=C(c1ccc(Cl)c(Cl)c1)N1CCc2nn3c(c2C1)-c1nocc1CC(O)C3 (stereo not drawn) [Compound 19, (3,4-Dichlorophenyl)(5-hydroxy-5,6,9,10-tetrahydro-4H-isoxazolo[3,4-c]pyrido[4′,3′:3,4]pyrazolo[1,5-a]azepin-11(12H)-yl)methanone]	> 50	0.263		
O=C(c1ccc(Cl)c(Cl)c1)N1CCc2nn3c(c2C1)-c1nocc1CCC3 [Compound 11]	> 46.2	0.3		
O=C(NC1CC1)C1Cc2conc2-c2c3c(nn2C1)CCN(C(=O)c1ccc(Cl)c(Cl)c1)C3 (stereo not drawn) [Compound 33, N-Cyclopropyl-11-(3,4-dichlorobenzoyl)-5,6,9,10,11,12-hexahydro-4H-[1,2]oxazolo[3,4-c]-pyrido[4′,3′:3,4]pyrazolo[1,5-a]azepine-5-carboxamide]			> 50	0.154
CCNC(=O)C1Cc2conc2-c2c3c(nn2C1)CCN(C(=O)c1ccc(Cl)c(Cl)c1)C3 (stereo not drawn) [Compound 32, 11-(3,4-Dichlorobenzoyl)-N-ethyl-5,6,9,10,11,12-hexahydro-4H-[1,2]oxazolo[3,4-c]pyrido-[4′,3′:3,4]pyrazolo[1,5-a]azepine-5-carboxamide]	> 50	0.09		
CCc1onc2c1CCCn1nc3c(c1-2)CN(C(=O)c1ccc(Cl)c(Cl)c1)CC3 [Compound 13, (3,4-Dichlorophenyl)(3-ethyl-5,6,9,10-tetrahydro-4H-[1,2]oxazolo[3,4-c]-pyrido[4′,3′:3,4]pyrazolo[1,5-a]azepin-11(12H)-yl)methanone]	26.6	2.94		
C[C@@H]1Cc2nn3c(c2CN1C(=O)c1ccc(Cl)c(Cl)c1)-c1nocc1CCC3 [Compound 14, (3,4-dichlorophenyl)[(10R)-10-methyl-5,6,9,10-tetrahydro-4H-[1,2]oxazolo-[3,4-c]pyrido[4′,3′:3,4]pyrazolo[1,5-a]azepin-11(12H)-yl]methanone]	39.2	0.213		
O=C(c1ccc(Cl)c(Cl)c1)N1CCc2nn3c(c2C1)-c1noc(C(F)(F)F)c1CCC3 [Compound 16, (3,4-Dichlorophenyl)[3-(trifluoromethyl)-5,6,9,10-tetrahydro-4H-[1,2]oxazolo[3,4-c]pyrido[4′,3′:3,4]pyrazolo[1,5-a]azepin-11(12H)-yl]methanone]	> 50	1.62		
